Experimental data as given in PubChem BioAssay AID504703 (Southern Research Specialized Biocontainment Screening …, 2011).
Several values for one entry are separate records, joined by “and”; a condition that tells them apart may be missing. Equal values may be shown once. Activity calls are given as the source filed them. No rule for the calls is given here.

Tested on: M. tuberculosis H37Rv growth inhibition with meropenem
Experiment: M. tuberculosis growth inhibition, H37Rv, set 2, dose response (AID 504703);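 also: growth ran 7 days at 37 °C then overnight with Alamar Blue before reading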
[1] = M. tuberculosis H37Rv growth inhibition, measured here: IC50 without meropenem
[2] = M. tuberculosis H37Rv growth inhibition, measured here: IC90 without meropenem
[3] = measured here: IC90 with meropenem

SMILES	IC50 [1] [µM]	IC90 [2] [µM]	IC50	IC90 [3] [µM]
COC(=O)c1c(C)[nH]c2ccc(Cl)cc12	> 25	> 25	–	–
OCCCc1cn(-c2ccccc2)c2ccccc12	> 25	> 25	14.2 µM (inactive)	> 25
CCOc1ccc2nc(NC(=O)Cc3ccc(OC)cc3)sc2c1	> 25	> 25	–	–
CCOc1ccc2nc(NC(=O)COc3ccccc3)sc2c1	> 25	> 25	–	–
CCOC(=O)c1c(C)[nH]c2ccccc12	> 25	> 25	–	–
CCOc1ccc2[nH]cc(C(=O)OC)c2c1	> 25	> 25	> 25 µM (inactive)	> 25
c1ccc(-c2cc(N3CCOCC3)nc3ccccc23)cc1	> 25	> 25	10 µM (inactive)	> 18.8
COc1ccc2nc(NC(=O)COc3ccccc3C(C)C)sc2c1	> 25	> 25	–	–
CC(=O)c1c(C)n(-c2ccccc2)c2ccc(O)cc12	> 25	> 25	20.1 µM (inactive)	> 25
Cc1cc2ccccc2n1-c1ccccc1	> 25	> 25	–	–
Cc1ccc(OCC(=O)Nc2cccc3ccccc23)c(C)c1	> 25	> 25	20.5 µM (inactive)	> 25
CCOc1ccc2c(c1)c(C(C)=O)c(C)n2-c1ccccc1C	23.2	> 25	–	12.1
O=C(COc1ccc2c3c(c(=O)oc2c1)CCC3)Nc1nc2ccccc2[nH]1	> 25	> 25	–	–
Cc1ccc(OC(C)C(=O)Nc2ncccn2)c(C)c1 (stereo not drawn)	> 25	> 25	–	–
Cc1ccc(OCC(=O)Nc2nc3ccc(F)cc3s2)cc1	> 25	> 25	–	–
COc1ccc2c(c1)c(C(C)=O)c(C)n2-c1ccccc1	> 25	> 25	–	> 18.8
COc1ccc2nc(NC(=O)COc3c(C)cc(C)cc3C)sc2c1	> 25	> 25	–	–
COC(=O)c1c(C)n(-c2ccccc2)c2ccc(O)cc12	> 25	> 25	8.43 µM (inactive) and > 12.5 µM (inactive)	> 18.8
COc1ccc2nc(NC(=O)C(C)Oc3ccccc3)sc2c1 (stereo not drawn)	> 25	> 25	–	–
CCOc1ccc2[nH]ccc2c1	> 25	> 25	–	–
CCOc1ccc2nc(NC(=O)c3cnccn3)sc2c1	> 25	> 25	–	–
Oc1ccc2[nH]ccc2c1	> 25	> 25	–	–
Cc1cc(C)c(OCC(=O)Nc2nc3ccc(C)cc3s2)c(C)c1	> 25	> 25	–	–
COc1ccc2c(c1)cc(C)n2-c1ccccc1	> 25	> 25	–	> 25
